Test results: ChEMBL document CHEMBL5465560, “Selectivity Literature for EUbOPEN Chemogenomic Library” (2024)

What was measured:
[1] = molecular target: Serine/threonine-protein kinase PAK 3 (Homo sapiens) (UniProt O75914); test: Selectivity interaction (KinomeScan (DiscoverX)) EUB0000045b PAK3
[2] = molecular target: T1, Phosphatidylinositol 4,5-bisphosphate 3-kinase catalytic subunit delta isoform (Homo sapiens) (UniProt O00329); test: Selectivity interaction (KinomeScan (DiscoverX)) EUB0000695a PIK3CD; conditions: at 100 nM
T1 sequence (whole entry): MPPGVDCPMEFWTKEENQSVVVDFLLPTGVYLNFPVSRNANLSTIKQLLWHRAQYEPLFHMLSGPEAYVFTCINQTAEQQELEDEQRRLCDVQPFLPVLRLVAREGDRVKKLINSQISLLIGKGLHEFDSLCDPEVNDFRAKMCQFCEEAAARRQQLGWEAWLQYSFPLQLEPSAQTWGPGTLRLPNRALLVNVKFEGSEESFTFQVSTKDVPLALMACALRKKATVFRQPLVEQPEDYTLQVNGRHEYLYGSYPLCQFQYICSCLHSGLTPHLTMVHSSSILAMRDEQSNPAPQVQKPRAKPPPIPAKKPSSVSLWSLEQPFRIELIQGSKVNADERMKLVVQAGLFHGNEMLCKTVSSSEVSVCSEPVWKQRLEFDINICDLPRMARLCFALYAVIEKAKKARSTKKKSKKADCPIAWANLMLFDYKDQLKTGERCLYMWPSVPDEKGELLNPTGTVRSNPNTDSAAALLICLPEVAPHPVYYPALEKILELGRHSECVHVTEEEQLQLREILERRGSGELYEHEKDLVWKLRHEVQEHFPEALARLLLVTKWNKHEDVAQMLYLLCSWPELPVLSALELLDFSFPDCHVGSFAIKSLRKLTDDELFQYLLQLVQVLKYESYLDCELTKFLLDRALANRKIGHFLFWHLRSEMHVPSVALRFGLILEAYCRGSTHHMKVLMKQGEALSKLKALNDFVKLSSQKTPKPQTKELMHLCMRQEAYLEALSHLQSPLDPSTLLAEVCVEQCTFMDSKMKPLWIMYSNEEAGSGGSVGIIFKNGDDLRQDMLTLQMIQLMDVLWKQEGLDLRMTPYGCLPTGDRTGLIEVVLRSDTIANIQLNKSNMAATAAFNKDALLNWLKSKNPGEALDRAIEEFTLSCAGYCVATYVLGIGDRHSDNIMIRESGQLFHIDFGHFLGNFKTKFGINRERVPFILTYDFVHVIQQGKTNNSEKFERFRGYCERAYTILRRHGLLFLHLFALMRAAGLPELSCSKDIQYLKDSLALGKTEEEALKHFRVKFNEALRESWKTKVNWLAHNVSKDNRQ

[3] = molecular target: STE20/SPS1-related proline-alanine-rich protein kinase (Homo sapiens) (UniProt Q9UEW8); test: Selectivity interaction (KinomeScan (DiscoverX)) EUB0000695a STK39; conditions: at 100 nM
[4] = molecular target: T2, Serine/threonine-protein kinase D2 (Homo sapiens) (UniProt Q9BZL6); test: Selectivity interaction (KinomeScan (DiscoverX)) EUB0001079a PRKD2; conditions: at 1 µM
T2 sequence (whole entry): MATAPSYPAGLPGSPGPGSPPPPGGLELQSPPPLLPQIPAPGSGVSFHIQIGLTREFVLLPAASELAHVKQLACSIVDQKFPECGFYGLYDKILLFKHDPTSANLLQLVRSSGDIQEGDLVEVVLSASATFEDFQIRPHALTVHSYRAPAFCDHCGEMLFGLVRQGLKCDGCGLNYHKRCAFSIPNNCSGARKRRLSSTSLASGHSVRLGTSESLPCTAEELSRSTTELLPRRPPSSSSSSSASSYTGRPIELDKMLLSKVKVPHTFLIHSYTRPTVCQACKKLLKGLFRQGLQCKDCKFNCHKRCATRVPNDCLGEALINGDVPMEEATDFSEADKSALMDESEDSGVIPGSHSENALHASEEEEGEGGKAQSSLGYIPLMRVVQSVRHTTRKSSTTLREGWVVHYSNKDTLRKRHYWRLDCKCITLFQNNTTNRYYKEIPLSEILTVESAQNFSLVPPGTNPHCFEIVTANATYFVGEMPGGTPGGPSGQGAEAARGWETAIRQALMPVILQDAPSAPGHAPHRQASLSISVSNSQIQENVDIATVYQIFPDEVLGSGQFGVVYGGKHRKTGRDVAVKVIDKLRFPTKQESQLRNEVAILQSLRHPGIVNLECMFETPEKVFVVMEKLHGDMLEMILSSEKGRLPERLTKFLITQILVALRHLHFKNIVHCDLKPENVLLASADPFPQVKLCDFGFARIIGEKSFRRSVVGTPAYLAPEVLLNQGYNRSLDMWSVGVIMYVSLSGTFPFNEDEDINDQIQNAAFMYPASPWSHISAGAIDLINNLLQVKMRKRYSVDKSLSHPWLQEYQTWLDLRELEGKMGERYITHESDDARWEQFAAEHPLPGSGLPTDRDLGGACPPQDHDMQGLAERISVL

[5] = molecular target: Protein polybromo-1 (Homo sapiens) (UniProt Q86U86); test: Selectivity interaction (Bromodomain panel (DSF asssay)) EUB0000270b PBRM1
[6] = molecular target: Mitogen-activated protein kinase kinase kinase kinase 4 (Homo sapiens, UniProt O95819); test: Selectivity interaction (Upstate Kinase Profiler service (Millipore)) EUB0000056c MAP4K4; conditions: at 1 µM
[7] = molecular target: Serine/threonine-protein kinase WNK1 (Homo sapiens) (UniProt Q9H4A3); test: Selectivity interaction (KinomeScan (DiscoverX)) EUB0000607a WNK1; conditions: at 10 µM
[8] = molecular target: T3, Mitogen-activated protein kinase kinase kinase 2 (Homo sapiens) (UniProt Q9Y2U5); test: Selectivity interaction (ActivX KiNativ screen (kinase selectivity in THP-1 cell lysates)) EUB0000639a MAP3K2; type: subcellular; conditions: lysate, at 1 µM
T3 sequence (whole entry): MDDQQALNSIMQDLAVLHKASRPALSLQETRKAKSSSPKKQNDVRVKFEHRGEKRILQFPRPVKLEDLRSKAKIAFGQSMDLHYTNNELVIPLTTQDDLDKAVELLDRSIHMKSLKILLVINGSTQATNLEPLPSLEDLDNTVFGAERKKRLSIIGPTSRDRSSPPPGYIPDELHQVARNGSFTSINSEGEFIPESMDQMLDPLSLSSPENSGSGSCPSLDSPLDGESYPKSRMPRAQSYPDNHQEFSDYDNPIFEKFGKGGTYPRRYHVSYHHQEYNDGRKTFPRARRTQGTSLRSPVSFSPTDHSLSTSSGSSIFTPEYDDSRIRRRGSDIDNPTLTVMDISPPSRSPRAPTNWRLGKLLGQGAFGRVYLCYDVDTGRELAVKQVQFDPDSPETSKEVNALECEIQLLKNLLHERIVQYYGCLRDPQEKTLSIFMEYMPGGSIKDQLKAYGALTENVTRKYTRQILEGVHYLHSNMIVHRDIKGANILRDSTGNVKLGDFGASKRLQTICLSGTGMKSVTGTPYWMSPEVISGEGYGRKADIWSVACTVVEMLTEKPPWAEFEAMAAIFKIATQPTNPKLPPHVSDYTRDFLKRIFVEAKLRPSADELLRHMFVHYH

Serine/threonine-protein kinase PAK 3 (Homo sapiens), sequence (O75914 whole entry, looked up, canonical isoform): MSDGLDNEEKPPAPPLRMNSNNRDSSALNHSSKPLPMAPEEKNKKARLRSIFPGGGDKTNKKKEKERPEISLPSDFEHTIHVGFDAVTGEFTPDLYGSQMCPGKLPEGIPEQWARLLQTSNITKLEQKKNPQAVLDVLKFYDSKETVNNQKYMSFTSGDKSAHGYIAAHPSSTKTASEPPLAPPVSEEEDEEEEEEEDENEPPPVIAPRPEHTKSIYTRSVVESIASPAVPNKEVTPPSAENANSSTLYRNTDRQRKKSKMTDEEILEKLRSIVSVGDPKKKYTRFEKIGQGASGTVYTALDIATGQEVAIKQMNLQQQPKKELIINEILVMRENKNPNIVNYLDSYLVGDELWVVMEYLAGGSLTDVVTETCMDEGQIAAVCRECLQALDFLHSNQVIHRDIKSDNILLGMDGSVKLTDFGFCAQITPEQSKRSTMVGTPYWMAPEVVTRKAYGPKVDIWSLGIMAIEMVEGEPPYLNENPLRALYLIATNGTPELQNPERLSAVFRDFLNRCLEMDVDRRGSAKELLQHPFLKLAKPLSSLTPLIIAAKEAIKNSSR
Protein polybromo-1 (Homo sapiens), sequence (Q86U86 whole entry): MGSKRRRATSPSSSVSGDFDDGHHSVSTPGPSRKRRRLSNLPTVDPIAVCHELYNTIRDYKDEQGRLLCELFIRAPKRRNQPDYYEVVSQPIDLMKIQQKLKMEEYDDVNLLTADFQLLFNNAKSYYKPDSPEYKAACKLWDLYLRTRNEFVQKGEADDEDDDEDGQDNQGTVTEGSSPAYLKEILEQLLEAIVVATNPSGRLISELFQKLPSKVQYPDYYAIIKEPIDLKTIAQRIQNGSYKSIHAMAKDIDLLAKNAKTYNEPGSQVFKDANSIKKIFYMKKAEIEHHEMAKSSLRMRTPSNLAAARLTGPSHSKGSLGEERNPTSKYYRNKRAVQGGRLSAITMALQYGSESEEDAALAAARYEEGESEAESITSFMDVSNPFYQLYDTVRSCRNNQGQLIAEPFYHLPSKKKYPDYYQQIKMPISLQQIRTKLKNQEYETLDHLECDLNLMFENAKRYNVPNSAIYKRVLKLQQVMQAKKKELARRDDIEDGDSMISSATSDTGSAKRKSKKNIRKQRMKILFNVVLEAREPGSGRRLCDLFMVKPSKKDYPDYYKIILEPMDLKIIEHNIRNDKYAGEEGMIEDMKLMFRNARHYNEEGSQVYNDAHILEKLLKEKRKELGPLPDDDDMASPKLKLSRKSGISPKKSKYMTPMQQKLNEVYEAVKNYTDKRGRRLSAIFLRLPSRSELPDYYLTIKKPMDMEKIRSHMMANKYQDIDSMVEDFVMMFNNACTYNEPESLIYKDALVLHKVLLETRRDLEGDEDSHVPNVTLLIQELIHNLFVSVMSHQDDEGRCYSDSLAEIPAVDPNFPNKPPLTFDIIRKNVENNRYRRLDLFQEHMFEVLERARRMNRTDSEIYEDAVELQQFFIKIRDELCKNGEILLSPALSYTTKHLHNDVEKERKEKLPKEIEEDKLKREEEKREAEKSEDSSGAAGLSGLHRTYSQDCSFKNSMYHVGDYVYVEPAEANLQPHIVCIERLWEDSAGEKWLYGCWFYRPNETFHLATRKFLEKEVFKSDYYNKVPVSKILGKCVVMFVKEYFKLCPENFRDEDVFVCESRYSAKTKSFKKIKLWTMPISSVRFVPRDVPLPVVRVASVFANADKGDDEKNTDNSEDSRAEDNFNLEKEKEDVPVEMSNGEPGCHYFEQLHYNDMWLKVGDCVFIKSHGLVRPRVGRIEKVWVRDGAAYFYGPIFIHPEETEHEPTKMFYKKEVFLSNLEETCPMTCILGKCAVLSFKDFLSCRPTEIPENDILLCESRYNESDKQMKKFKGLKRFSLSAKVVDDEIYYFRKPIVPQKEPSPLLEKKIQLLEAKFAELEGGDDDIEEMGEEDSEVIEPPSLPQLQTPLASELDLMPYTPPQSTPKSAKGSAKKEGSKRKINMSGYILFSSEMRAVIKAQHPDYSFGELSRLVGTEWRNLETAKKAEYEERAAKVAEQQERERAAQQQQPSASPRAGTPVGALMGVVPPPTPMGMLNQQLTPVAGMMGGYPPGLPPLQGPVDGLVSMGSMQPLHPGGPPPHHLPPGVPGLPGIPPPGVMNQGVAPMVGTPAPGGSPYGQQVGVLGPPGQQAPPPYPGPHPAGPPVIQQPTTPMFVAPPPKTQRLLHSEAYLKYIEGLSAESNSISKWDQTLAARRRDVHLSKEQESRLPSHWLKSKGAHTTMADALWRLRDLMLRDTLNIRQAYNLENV
Mitogen-activated protein kinase kinase kinase kinase 4, sequence (O95819 2-1239 limits assumed): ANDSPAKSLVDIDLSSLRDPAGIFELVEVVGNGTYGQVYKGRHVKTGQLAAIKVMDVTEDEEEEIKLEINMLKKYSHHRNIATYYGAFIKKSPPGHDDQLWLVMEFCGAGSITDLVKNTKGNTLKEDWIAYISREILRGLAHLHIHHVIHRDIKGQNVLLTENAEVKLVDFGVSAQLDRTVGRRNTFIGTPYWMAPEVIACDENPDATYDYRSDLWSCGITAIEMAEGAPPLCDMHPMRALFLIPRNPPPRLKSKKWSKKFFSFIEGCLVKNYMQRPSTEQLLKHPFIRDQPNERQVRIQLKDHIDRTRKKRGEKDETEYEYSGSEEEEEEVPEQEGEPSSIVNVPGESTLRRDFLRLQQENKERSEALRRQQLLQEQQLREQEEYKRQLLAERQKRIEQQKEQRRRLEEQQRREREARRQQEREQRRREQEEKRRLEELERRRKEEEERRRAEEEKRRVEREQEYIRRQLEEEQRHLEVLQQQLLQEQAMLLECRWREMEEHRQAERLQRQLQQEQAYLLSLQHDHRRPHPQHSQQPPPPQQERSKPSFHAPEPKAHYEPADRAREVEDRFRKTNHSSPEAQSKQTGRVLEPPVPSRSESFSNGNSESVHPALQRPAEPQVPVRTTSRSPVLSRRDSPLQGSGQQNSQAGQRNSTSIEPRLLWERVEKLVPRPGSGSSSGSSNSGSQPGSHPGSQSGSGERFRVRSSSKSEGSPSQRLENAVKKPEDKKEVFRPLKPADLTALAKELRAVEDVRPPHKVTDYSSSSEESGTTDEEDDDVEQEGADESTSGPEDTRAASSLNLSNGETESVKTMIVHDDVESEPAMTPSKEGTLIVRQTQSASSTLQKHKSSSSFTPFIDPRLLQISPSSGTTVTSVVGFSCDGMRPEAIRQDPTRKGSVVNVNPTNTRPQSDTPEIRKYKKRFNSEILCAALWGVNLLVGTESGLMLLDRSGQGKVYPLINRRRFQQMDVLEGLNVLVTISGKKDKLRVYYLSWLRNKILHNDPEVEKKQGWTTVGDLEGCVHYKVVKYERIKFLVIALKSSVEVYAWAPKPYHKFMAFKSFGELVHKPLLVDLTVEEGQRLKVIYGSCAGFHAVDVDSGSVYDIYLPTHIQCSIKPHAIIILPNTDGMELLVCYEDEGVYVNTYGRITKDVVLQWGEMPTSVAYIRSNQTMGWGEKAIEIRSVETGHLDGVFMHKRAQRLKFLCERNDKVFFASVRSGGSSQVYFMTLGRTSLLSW

## C=CC(=O)Nc1cc(-n2c(=O)ccc3cnc4ccc(-c5ccc(NS(C)(=O)=O)cc5)cc4c32)ccc1C
[1]; at 1 µM
  % of control: 92%
[1]; at 10 µM
  % of control: 100%

## Cc1cc(F)c(C(=O)Nc2cccc(-c3nncn3C(C)C)n2)cc1-n1cnc(C2CC2)c1
[2]
  % of control: 92%
[3]
  % of control: 79%

## Nc1cnc(N2CCc3cc(S(=O)(=O)Nc4c(F)cc(Cl)cc4F)cc(N4CCCC4=O)c32)nc1 [TP-020n]
[4]
  % of control: 100%

## Cc1cc(CN)cc(C)c1-c1ncn(C)c1-c1cncn1C
[5]
  dTM: -1.74 K

## Cc1ccc(-c2ccc3c(ccc4sc5c(c43)NC[C@@H](C)NC5=O)n2)cn1
[6]
  % of inhibition: 43%

## CNC(=O)Nc1ccc(-c2nc(N3CC4CCC(C3)O4)c3cnn(C4CCC5(CC4)OCCO5)c3n2)cc1
[7]
  % of control: 95%

## CC[C@@H]1[C@H](F)C(=O)N[C@@H]1COc1nccc2cc(C(N)=O)c(OC)cc12 [ZIMLOVISERTIB]
[8]
  % of inhibition: -7.6%
